Measurements from ChEMBL document CHEMBL3627608, “Crystal structures of human RIP2 kinase catalytic domain complexed with ATP-competitive inhibitors: Foundations for understanding inhibitor selectivity” (Bioorg Med Chem, 2015).

Tests used:
Homo sapiens = species on record: Homo sapiens; experiment: Inhibition of PKG1alpha (unknown origin) at 10 uM after 120 mins P33 radiolabeled kinase activity assay
[1] = molecular target: Protein-tyrosine kinase 2-beta (Homo sapiens) (UniProt Q14289); experiment: Inhibition of PYK2 (unknown origin) at 10 uM after 120 mins P33 radiolabeled kinase activity assay
[2] = molecular target: T1, MAP kinase-activated protein kinase 5 (Homo sapiens) (UniProt Q8IW41); experiment: Inhibition of MAPKAPK5 (unknown origin) at 10 uM after 120 mins P33 radiolabeled kinase activity assay
T1 sequence (whole entry): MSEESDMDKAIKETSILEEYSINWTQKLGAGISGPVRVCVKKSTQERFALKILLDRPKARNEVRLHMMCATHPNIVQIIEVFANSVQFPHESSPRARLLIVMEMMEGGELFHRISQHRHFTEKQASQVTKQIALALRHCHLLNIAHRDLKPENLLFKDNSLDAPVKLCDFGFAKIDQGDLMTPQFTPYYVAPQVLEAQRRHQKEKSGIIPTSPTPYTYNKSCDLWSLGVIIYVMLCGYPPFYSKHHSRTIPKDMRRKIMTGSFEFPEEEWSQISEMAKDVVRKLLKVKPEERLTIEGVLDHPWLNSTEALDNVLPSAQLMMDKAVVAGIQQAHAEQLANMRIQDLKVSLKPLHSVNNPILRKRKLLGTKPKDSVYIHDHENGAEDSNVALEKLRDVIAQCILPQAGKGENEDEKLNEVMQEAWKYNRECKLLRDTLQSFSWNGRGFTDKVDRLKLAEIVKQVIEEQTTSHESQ

[3] = molecular target: T2, MAP/microtubule affinity-regulating kinase 4 (Homo sapiens) (UniProt Q96L34); experiment: Inhibition of MARK4 (unknown origin) at 10 uM after 120 mins P33 radiolabeled kinase activity assay
T2 sequence (whole entry): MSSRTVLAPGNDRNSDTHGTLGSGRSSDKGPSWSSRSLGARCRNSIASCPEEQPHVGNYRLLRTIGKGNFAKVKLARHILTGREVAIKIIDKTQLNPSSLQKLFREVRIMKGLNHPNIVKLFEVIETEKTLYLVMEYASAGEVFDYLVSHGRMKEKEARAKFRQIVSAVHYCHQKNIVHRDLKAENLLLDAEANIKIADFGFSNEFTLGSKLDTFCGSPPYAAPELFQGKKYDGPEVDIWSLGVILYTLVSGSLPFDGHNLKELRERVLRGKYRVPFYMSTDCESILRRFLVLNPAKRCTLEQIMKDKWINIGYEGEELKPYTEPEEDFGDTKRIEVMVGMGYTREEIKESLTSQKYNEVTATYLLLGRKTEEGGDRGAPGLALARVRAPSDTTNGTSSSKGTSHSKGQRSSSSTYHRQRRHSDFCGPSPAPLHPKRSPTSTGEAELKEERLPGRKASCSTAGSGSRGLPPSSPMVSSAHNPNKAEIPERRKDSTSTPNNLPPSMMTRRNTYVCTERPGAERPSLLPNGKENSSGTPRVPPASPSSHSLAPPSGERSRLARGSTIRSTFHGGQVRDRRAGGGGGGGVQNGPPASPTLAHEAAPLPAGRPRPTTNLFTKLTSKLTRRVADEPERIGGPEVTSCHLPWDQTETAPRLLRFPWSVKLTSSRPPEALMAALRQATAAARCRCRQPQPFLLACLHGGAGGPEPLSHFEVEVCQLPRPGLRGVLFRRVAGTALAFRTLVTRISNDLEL

[4] = molecular target: T3, Dual specificity mitogen-activated protein kinase kinase 3 (Homo sapiens) (UniProt P46734); experiment: Inhibition of MEK3 (unknown origin) at 10 uM after 120 mins P33 radiolabeled kinase activity assay
T3 sequence (whole entry): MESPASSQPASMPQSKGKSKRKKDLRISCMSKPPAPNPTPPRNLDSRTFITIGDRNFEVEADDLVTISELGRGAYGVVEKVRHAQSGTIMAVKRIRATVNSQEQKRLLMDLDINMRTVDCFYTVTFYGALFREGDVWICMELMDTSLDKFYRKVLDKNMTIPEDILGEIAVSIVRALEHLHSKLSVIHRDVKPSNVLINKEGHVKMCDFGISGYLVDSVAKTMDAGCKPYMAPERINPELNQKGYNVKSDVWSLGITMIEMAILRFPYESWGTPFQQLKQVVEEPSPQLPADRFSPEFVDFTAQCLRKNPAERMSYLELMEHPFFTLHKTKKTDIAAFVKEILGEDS

[5] = molecular target: T4, NUAK family SNF1-like kinase 2 (Homo sapiens) (UniProt Q9H093); experiment: Inhibition of SNARK (unknown origin) at 10 uM after 120 mins P33 radiolabeled kinase activity assay
T4 sequence (whole entry): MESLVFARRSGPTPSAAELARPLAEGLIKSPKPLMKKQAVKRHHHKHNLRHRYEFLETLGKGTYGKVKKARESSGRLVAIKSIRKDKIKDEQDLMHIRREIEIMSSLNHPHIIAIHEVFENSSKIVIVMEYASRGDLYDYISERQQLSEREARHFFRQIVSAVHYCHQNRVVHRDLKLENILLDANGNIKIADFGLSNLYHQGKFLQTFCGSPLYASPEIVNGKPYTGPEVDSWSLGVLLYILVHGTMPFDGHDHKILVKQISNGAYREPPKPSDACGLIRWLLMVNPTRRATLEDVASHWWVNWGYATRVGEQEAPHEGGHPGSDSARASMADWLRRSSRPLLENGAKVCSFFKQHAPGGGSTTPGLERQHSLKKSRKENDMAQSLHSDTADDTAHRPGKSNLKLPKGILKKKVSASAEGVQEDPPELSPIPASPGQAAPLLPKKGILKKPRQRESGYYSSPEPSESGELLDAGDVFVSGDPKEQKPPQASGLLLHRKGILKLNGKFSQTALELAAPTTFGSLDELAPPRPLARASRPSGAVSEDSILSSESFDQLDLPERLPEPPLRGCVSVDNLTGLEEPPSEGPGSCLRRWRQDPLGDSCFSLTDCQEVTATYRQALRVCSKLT

[6] = molecular target: T5, Serine/threonine-protein kinase Chk1 (Homo sapiens) (UniProt O14757); experiment: Inhibition of CHK1 (unknown origin) at 10 uM after 120 mins P33 radiolabeled kinase activity assay
T5 sequence (whole entry): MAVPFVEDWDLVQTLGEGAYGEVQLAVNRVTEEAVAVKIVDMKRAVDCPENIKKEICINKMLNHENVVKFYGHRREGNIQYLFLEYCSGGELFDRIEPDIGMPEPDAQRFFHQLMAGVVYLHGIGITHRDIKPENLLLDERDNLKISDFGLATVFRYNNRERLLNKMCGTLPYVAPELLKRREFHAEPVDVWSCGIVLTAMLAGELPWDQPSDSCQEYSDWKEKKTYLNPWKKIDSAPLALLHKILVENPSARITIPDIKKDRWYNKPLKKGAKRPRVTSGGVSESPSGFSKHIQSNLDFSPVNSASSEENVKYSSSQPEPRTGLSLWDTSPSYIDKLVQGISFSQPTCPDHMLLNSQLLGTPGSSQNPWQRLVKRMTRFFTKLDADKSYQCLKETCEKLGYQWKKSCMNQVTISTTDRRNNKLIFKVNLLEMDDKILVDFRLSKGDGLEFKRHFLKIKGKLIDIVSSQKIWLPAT

Protein-tyrosine kinase 2-beta (Homo sapiens), sequence (Q14289 whole entry, looked up): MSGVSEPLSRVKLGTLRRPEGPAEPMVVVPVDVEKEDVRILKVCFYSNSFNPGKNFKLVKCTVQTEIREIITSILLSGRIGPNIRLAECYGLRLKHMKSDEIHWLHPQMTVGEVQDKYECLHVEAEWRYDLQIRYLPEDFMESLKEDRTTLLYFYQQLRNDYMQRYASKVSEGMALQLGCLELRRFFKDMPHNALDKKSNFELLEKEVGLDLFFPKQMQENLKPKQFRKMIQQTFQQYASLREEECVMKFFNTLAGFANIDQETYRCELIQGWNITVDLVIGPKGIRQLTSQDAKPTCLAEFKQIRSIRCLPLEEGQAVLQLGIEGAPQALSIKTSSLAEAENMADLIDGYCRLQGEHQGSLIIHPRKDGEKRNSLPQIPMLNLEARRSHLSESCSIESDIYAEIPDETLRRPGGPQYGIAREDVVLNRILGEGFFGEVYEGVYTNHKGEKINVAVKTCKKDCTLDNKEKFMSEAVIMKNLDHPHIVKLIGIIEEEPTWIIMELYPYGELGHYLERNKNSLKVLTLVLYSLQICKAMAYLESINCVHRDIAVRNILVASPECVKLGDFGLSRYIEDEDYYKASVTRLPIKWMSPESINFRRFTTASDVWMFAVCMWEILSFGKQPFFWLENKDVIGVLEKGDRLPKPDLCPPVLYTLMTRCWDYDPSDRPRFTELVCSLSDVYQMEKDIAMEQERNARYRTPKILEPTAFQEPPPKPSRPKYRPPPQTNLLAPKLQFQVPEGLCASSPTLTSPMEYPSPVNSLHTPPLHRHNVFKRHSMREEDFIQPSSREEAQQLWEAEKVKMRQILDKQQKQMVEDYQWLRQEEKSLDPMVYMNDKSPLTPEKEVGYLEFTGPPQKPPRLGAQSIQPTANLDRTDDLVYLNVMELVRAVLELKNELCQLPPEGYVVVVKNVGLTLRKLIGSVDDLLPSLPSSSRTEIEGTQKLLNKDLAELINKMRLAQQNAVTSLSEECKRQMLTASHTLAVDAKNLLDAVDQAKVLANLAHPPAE

SMILES	inhibition (Homo sapiens)	inhibition [1]	inhibition [2]	inhibition [3]	inhibition [4]	inhibition [5]	inhibition [6]
COCCNC(=O)c1ccc2c(c1)nc(-c1cnc(-c3ccc(Cl)cc3)[nH]1)n2CCOC	-4.79%	7.67%	5.26%	12.5%	0.04%	2.98%	15.3%
CS(=O)(=O)c1cccc(Nc2nccc(-c3sc(N4CCOCC4)nc3-c3cccc(NS(=O)(=O)c4c(F)cccc4F)c3)n2)c1	9.43%	23.7%	4.25%	39.1%	21.2%	2.62%	10.9%
CC(C)(C)c1cc(NC(=O)Nc2ccc(Oc3ccncc3)cc2)no1	7.43%	16.5%	-1.68%	13.8%	3.51%	-1.05%	-0.09%
